Experimental findings from patent publication US20260355196A1, “INHIBITORS AND DEGRADERS OF PIP4K PROTEIN” (Larkspur Biosciences, Inc., priority 2023, published 2026) are described below.

SMILES strings stand for the structures.

For the test, the target named is T1, PIP4K2C (Homo sapiens, UniProt Q8TBX8).
T1 sequence (Q8TBX8 1-421): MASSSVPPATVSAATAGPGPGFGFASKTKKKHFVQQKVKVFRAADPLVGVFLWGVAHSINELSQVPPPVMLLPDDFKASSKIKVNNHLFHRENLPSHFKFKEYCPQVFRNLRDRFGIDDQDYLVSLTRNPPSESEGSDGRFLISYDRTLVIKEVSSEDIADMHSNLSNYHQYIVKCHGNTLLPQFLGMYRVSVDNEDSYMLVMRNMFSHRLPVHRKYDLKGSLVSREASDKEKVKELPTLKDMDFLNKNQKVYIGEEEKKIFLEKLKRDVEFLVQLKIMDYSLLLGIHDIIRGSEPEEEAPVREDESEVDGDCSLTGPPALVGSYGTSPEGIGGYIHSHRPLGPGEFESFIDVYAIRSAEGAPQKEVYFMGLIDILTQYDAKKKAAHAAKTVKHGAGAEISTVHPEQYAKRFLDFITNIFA
Nature of the test: Enzyme Binding Assay (KINOMEscan): active site-directed competition binding to an immobilized ligand. Also on record: purchased Eurofins DiscoverX, San Diego, CA 87-0007-1094. The settings on record: 11-point dose response, duplicate, top concentration 5 micromolar; read-out: Pip4k2c Kd: IC50. The procedure, abridged: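 Active site-directed competition binding against an immobilized ligand. 11-point dose-response in duplicate, top concentration 5 micromolar; IC50 from a Hill equation fitted by the Levenberg-Marquardt algorithm.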
What is called IC50 is the point on the concentration scale where inhibition reaches its midpoint. As to `CC(=O)N1CCC(Nc2ncc(F)c(-n3cc(C4CC4)cn3)n2)CC1` [Compound 219, 1-(4-((4-(4-cyclopropyl-1H-pyrazol-1-yl)-5-fluoropyrimidin-2-yl)amino)piperidin-1-yl)ethan-1-one], the IC50 was less than 500 nM.
`CC(=O)N1CCC(Nc2ncc(F)c(-c3cccc(N4CCCOC4=O)c3)n2)CC1` [Compound 220, 3-[3-[2-[(1-acetyl-4-piperidyl)amino]-5-fluoro-pyrimidin-4-yl]phenyl]-1,3-oxazinan-2-one]: the IC50 was less than 500 nM.
Take `CC(=O)N1CCC(Nc2ncc(F)c(-c3cccc(N4CCCCC4=O)c3)n2)CC1` [Compound 221, 1-(3-(2-((1-acetylpiperidin-4-yl)amino)-5-fluoropyrimidin-4-yl)phenyl)piperidin-2-one]: the concentration for half-maximal inhibition (IC50) was less than 500 nM.
In the case of `CC(=O)N1CCC(Nc2ncc(F)c(-c3cccc(N4CCCC4=O)c3)n2)CC1` [Compound 222, 1-[3-[2-[(1-acetyl-4-piperidyl)amino]-5-fluoro-pyrimidin-4-yl]phenyl]pyrrolidin-2-one], the IC50 is less than 500 nM.
Take `NC(=O)[C@@H]1CC[C@H](Nc2ncc(F)c(-c3cccc(-c4ccc[nH]c4=O)c3)n2)C1` [Compound 223, (1R,3S)-3-((5-fluoro-4-(3-(2-oxo-1,2-dihydropyridin-3-yl)phenyl)pyrimidin-2-yl)amino)cyclopentane-1-carboxamide]: the IC50 is less than 500 nM.
For `CC(=O)N1CCC(Nc2ncc(F)c(N3CCCC(c4cc[nH]c(=O)c4)C3)n2)CC1` (stereo not shown) [Compound 224, 4-(1-(2-((1-acetylpiperidin-4-yl)amino)-5-fluoropyrimidin-4-yl)piperidin-3-yl)pyridin-2(1H)-one] the value was 500 to 1000 nM.
For `CC(=O)N[C@H]1CC[C@H](Nc2ncc(F)c(-c3cccc(N4CCCOC4=O)c3)n2)CC1` [Compound 225, trans-N-(4-((5-fluoro-4-(3-(2-oxo-1,3-oxazinan-3-yl)phenyl)pyrimidin-2-yl)amino)cyclohexyl)acetamide] the value was less than 500 nM; for `CC(=O)N1CCC(Nc2ncc(F)c(-c3cccc(N4CCOC4=O)c3)n2)CC1` [Compound 226, 3-(3-(2-((1-acetylpiperidin-4-yl)amino)-5-fluoropyrimidin-4-yl)phenyl)oxazolidin-2-one], less than 500 nM; for `CC(=O)N1CCC(Nc2ncc(F)c(-c3cccc(N4CCC(O)C4=O)c3)n2)CC1` (stereo not shown) [Compound 228, 1-(3-(2-((1-acetylpiperidin-4-yl)amino)-5-fluoropyrimidin-4-yl)phenyl)-3-hydroxypyrrolidin-2-one], less than 500 nM.
To `NC(=O)[C@H]1CC[C@H](Nc2ncc(F)c(-c3cccc(-c4ccc(=O)[nH]c4)c3)n2)CC1` [Compound 229, trans-4-((5-fluoro-4-(3-(6-oxo-1,6-dihydropyridin-3-yl)phenyl)pyrimidin-2-yl)amino)cyclohexane-1-carboxamide] belongs less than 500 nM; to `CC(=O)N1CCC(Nc2ncc(F)c(-c3cccc(N4C[C@@H](O)CC4=O)c3)n2)CC1` [Compound 230, (4S)-1-[3-[2-[(1-acetyl-4-piperidyl)amino]-5-fluoro-pyrimidin-4-yl]phenyl]-4-hydroxy-pyrrolidin-2-one], less than 500 nM.
Take `CC(=O)N[C@H]1CC[C@H](Nc2ncc(F)c(-c3ccnc(C4(O)CCC4)c3)n2)CC1` [Compound 231, trans-N-(4-((5-fluoro-4-(2-(1-hydroxycyclobutyl)pyridin-4-yl)pyrimidin-2-yl)amino)cyclohexyl)acetamide]: the 50% inhibitory concentration (IC50) was less than 500 nM.
As to `CC(=O)N1CCC(Nc2ncc(F)c(-c3ccnc(C4(O)CCC4)c3)n2)CC1` [Compound 232, 1-(4-((5-fluoro-4-(2-(1-hydroxycyclobutyl)pyridin-4-yl)pyrimidin-2-yl)amino)piperidin-1-yl)ethan-1-one], the 50% inhibitory concentration (IC50) is less than 500 nM.
Take `CC(=O)N[C@H]1CC[C@H](Nc2ncc(F)c(-c3cccc(N4CCOC4=O)c3)n2)CC1` [Compound 233, trans-N-(4-((5-fluoro-4-(3-(2-oxooxazolidin-3-yl)phenyl)pyrimidin-2-yl)amino)cyclohexyl)acetamide]: the IC50 is less than 500 nM.
For the compound `CC(=O)N[C@H]1CC[C@H](Nc2ncc(F)c(-c3cccc(-n4cc(C(F)(F)F)ccc4=O)c3)n2)CC1` [Compound 234, trans-N-(4-((5-fluoro-4-(3-(2-oxo-5-(trifluoromethyl)pyridin-1 (2H)-yl)phenyl)pyrimidin-2-yl)amino)cyclohexyl)acetamide], the half-inhibitory concentration (IC50) was less than 500 nM.
For `CC(=O)N[C@H]1CC[C@H](Nc2ncc(F)c(-c3cccc(-n4cc(C)ccc4=O)c3)n2)CC1` [Compound 235, trans-N-(4-((5-fluoro-4-(3-(5-methyl-2-oxopyridin-1 (2H)-yl)phenyl)pyrimidin-2-yl)amino)cyclohexyl)acetamide] the value was less than 500 nM; for `NC(=O)[C@H]1CC[C@H](Nc2ncc(F)c(-c3cccc(N4CCCOC4=O)c3)n2)CC1` [Compound 236, trans-4-((5-fluoro-4-(3-(2-oxo-1,3-oxazinan-3-yl)phenyl)pyrimidin-2-yl)amino)cyclohexane-1-carboxamide], less than 500 nM.
For `CC(=O)N1CCC(Nc2ncc(F)c(-c3cccc(N4C[C@H](O)CC4=O)c3)n2)CC1` [Compound 237, (4R)-1-[3-[2-[(1-acetyl-4-piperidyl)amino]-5-fluoro-pyrimidin-4-yl]phenyl]-4-hydroxy-pyrrolidin-2-one] the value was less than 500 nM.
For `CC(=O)N[C@H]1CC[C@H](Nc2ncc(F)c(-c3cccc(-n4ccccc4=O)c3)n2)CC1` [Compound 238, trans-N-[4-[[5-fluoro-4-[3-(2-oxo-1-pyridyl)phenyl]pyrimidin-2-yl]amino]cyclohexyl]acetamide] the value was less than 500 nM; for `CC(=O)N1CCC(Nc2ncc(F)c(-c3cccc(-c4ncc[nH]4)c3)n2)CC1` [Compound 239, 1-(4-((4-(3-(1H-imidazol-2-yl)phenyl)-5-fluoropyrimidin-2-yl)amino)piperidin-1-yl)ethan-1-one], less than 500 nM.
As for `NC(=O)[C@H]1CC[C@H](Nc2ncc(F)c(-c3cccc(-n4ccccc4=O)c3)n2)CC1` [Compound 240, trans-(1r,4r)-4-((5-fluoro-4-(3-(2-oxopyridin-1 (2H)-yl)phenyl)pyrimidin-2-yl)amino)cyclohexane-1-carboxamide], the half-maximal inhibitory concentration (IC50) was less than 500 nM.
As to `CC(=O)N[C@H]1CC[C@H](Nc2ncc(F)c(-c3ccnc(C(C)(C)O)c3)n2)CC1` [Compound 241, trans-N-(4-((5-fluoro-4-(2-(2-hydroxypropan-2-yl)pyridin-4-yl)pyrimidin-2-yl)amino)cyclohexyl)acetamide], the 50% inhibitory concentration (IC50) was less than 500 nM.
To `CC(C)(O)c1cc(-c2nc(N[C@H]3CC[C@H](C(N)=O)CC3)ncc2F)ccn1` [Compound 242, trans-4-((5-fluoro-4-(2-(2-hydroxypropan-2-yl)pyridin-4-yl)pyrimidin-2-yl)amino)cyclohexane-1-carboxamide] belongs less than 500 nM; to `NC(=O)[C@H]1CC[C@H](Nc2ncc(F)c(-c3ccnc(C4(O)CCC4)c3)n2)CC1` [Compound 243, trans-4-((5-fluoro-4-(2-(1-hydroxycyclobutyl)pyridin-4-yl)pyrimidin-2-yl)amino)cyclohexane-1-carboxamide], less than 500 nM.
For `NC(=O)[C@@H]1CCC[C@H](Nc2ncc(F)c(-c3ccnc(C4(O)CCC4)c3)n2)C1` [Compound 244, (1R,3S)-3-((5-fluoro-4-(2-(1-hydroxycyclobutyl)pyridin-4-yl)pyrimidin-2-yl)amino)cyclohexane-1-carboxamide] the value was less than 500 nM; for `NC(=O)[C@H]1CC[C@H](Nc2ncc(F)c(-c3cccc(N4CCOC4=O)c3)n2)CC1` [Compound 245, trans-4-((5-fluoro-4-(3-(2-oxooxazolidin-3-yl)phenyl)pyrimidin-2-yl)amino)cyclohexane-1-carboxamide], less than 500 nM.
For `NC(=O)[C@H]1CC[C@H](Nc2ncc(F)c(-c3cccc(-n4cc(C(F)(F)F)ccc4=O)c3)n2)CC1` [Compound 246, trans-4-((5-fluoro-4-(3-(2-oxo-5-(trifluoromethyl)pyridin-1 (2H)-yl)phenyl)pyrimidin-2-yl)amino)cyclohexane-1-carboxamide], the IC50 was less than 500 nM.
Turning to `Cc1ccc(=O)n(-c2cccc(-c3nc(N[C@H]4CC[C@H](C(N)=O)CC4)ncc3F)c2)c1` [Compound 247, trans-4-((5-fluoro-4-(3-(5-methyl-2-oxopyridin-1 (2H)-yl)phenyl)pyrimidin-2-yl)amino)cyclohexane-1-carboxamide], the 50% inhibitory concentration (IC50) is less than 500 nM.
To `CC(=O)N[C@H]1CC[C@H](Nc2ncc(F)c(-c3cccc(N4CCCC4=O)c3)n2)CC1` [Compound 248, trans-N-(4-((5-fluoro-4-(3-(2-oxopyrrolidin-1-yl)phenyl)pyrimidin-2-yl)amino)cyclohexyl)acetamide] belongs less than 500 nM; to `NC(=O)[C@H]1CC[C@H](Nc2ncc(F)c(-c3cccc(N4CCCC4=O)c3)n2)CC1` [Compound 249, trans-4-((5-fluoro-4-(3-(2-oxopyrrolidin-1-yl)phenyl)pyrimidin-2-yl)amino)cyclohexane-1-carboxamide], less than 500 nM.
For the compound `CC(=O)N[C@H]1CC[C@H](Nc2ncc(F)c(-c3cccc(N4CCC(O)CC4)c3)n2)CC1` [Compound 250, trans-N-(4-((5-fluoro-4-(3-(4-hydroxypiperidin-1-yl)phenyl)pyrimidin-2-yl)amino)cyclohexyl)acetamide], the half-inhibitory concentration (IC50) is less than 500 nM.
